pIC50: −log10 of the molar value.
Key:
[1] = target: phosphorylated BTK in Ramos cells (Homo sapiens (Human), UniProt Q06187); experiment: Determination of phosphorylated BTK in Ramos cells (BTK phospho-Y223 HTRF); type: cell-based; details: anti-human IgM + hydrogen peroxide stimulation
Outline: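 BTK Y223 phosphorylation measured by HTRF (665/615 nm) in lysates of Ramos cells. Cells were serum-starved 2 h, exposed to compound for 1 h (final 0.00018–3.0 μM, 0.3% DMSO), then stimulated 10 min with 10 μg/mL anti-IgM and 3.3 mM H2O2. IC50 derived from percent inhibition between unstimulated and stimulated controls.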

[2] = Stability test in liver microsomes (rat); type: in vitro ADME
Description: (§1) Example 5 Stability Test in Liver Microsomes
(§2) Both male CD-1 mouse pooled liver microsomes and male SD rat pooled liver microsomes were purchased from BioreclamationIVT Corporation, USA.
(§3) Phenacetin, glucose-6-phosphate dehydrogenase (G-6-PDH) and nicotinamide adenine dinucleotide phosphate (NADP) were all purchased from Sigma-Aldrich Corporation, USA. Glucose-6-phosphate (G-6-P) was purchased from Shanghai Eybridge Chemical Technology Co., Ltd.
(§4) Ten mM test compound stock solution: a certain amount of test compound was weighed, and dissolved with an appropriate volume of DMSO to prepare a stock solution with a concentration of 10 mM for use.
(§5) Reaction stopping solution: an appropriate amount of internal standard compound phenacetin was dissolved in acetonitrile to prepare a reaction stopping solution with a concentration of 1000 ng/mL for use at room temperature.
(§6) The test compound stock solution was diluted with an organic solvent (usually a mixture of acetonitrile, methanol and water with various ratios, depending on the solubility of the compound, if necessary, 1 N hydrochloric acid or 1 N sodium hydroxide would be added to facilitate solubilization) to the 0.1 mM (the final concentration of the compound in the reaction system was 1 μM) and the concentration percentage of the organic solvents in the incubation system no more than 1% (wherein the percentage of DMSO was required to be no more than 0.1%). An appropriate amount of 100 mM NADP, 500 mM G-6-P and 100 Unit/mL G-6-PDH were mixed and diluted with ultrapure water (the final system contains 1 mM NADP, 5 mM G-6-P and 1 Unit/mL G-6-PDH), pre-incubated in a 37° C. water bath for 10 minutes and then placed on ice for use as a NADPH regeneration solution. 20 mg/mL liver microsomes solution and 200 mM phosphate buffer was mixed, and diluted with ultrapure water to give a liver microsomes solution containing 2.5 mg/mL liver microsomes (the final concentration of the reaction system is 0.5 mg/mL) and 50 mM phosphate buffer. The diluted liver microsomes solution was mixed with 0.1 mM compound solution, a mixture of 100 mM EDTA, 300 mM MgCl2 solution, 200 mM phosphate buffer (the final system was 3 mM MgCl2, 1 mM EDTA and 50 mM phosphate buffer) and water in an appropriate volume was added. Finally, the NADPH regeneration solution was added, then the reaction solution was placed in a 37° C. water bath to start the reaction (the reaction time was 30 minutes), and the reaction was stopped by adding the ice-cold acetonitrile reaction stopping solution containing the internal standard. The 0-minute sample was not incubated in a 37° C. water bath, and its difference from the 30-minute sample further lies in that the ice-cold acetonitrile reaction stopping solution containing the internal standard was added first, and then the NADPH regeneration solution was added. The sample added with the reaction stopping internal standard solution was vortexed and mixed well, and then centrifuged at 4400 rpm for 10 minutes. The supernatant was taken and diluted ten times with 50% methanol for LC-MS/MS analysis.
(§7) LC-MS/MS was used to determine the concentration of the compound in the sample. The percentage of the remaining compound after 30 minutes of incubation comparing with that in the 0-minute sample was calculated using the peak area ratio of the compound to the internal standard as an indicator, to evaluate the metabolic stability of the compound.
(§8) Instrument: API4500, API4000 or LTQ Mass Spectrometer; the liquid phase is UHPLC system (Shimadzu LC-30 AD, model Nexra X2) including liquid delivery unit, column thermostat, detector and autosampler; or Agilent 1200 Binary Pump series HPLC and CTC Autosampler.
(§9) Chromatographic column: Waters XSELECT Hss T3 C18 (2.5 μm, 2.1×50 mm) or […] (5 μm, 2.0×50 mm)
(§10) A: water with 0.1% FA (formic acid) (with or without 0.1% ACN (acetonitrile))
(§11) B: acetonitrile with 0.1% FA (formic acid).

[3] = Stability test in liver microsomes (mouse); type: in vitro ADME; details: mouse liver microsomes 0.5 mg/mL, compound 1 μM, 37° C.
Description: as §1, §2, §3, §4, §5, §6, §7, §8, §9, §10, §11

[4] = tested on: B cell activation in rat whole blood; experiment: Determination of B cell activity in whole blood of rats (anti-rat IgD induced B cell activation, flow cytometry); type: cell-based; details: anti-rat immunoglobulin D 10 μg/mL, 18 hours, inhibition of B cell activation
Procedure: Example 4 Determination of B Cell Activity in Whole Blood of Rats
1. Reagents and Materials
Peripheral whole blood of female Wistar rats;
In the determination of the compound activity, the collected peripheral whole blood of rat was added to a 96 well plate at 80 μL/well and cultured in a 5% CO2, 37° C. cell incubator. After half an hour, the test compound was diluted with PBS in a 3-fold gradient to the corresponding concentrations, and then the diluted test compound with different concentrations was added to the culture system of rat whole blood at 10 μL/well (the final concentration of the test compound was 1.0, 0.33, 0.11, 0.037, 0.012, 0.0041, 0.0014, and 0.0005 μM, the final concentration of DMSO was 0.3%, double replicate wells), or the control solution (0.3% DMSO, 6 replicate wells) was added to the corresponding well at 10 μL/well, which were incubated in the cell incubator for one hour. Then 10 μL/well of anti-rat immunoglobulin D diluted in PBS (the final concentration was 10 μg/mL) was add to the treating wells of the test compound and control wells for anti-rat immunoglobulin D, or 10 μL/well of PBS was added to the negative control wells, which were mixed well to continue the culture in a 5% CO2, 37° C. cell incubator, and incubated for 18 hours.
On the second day, the 96-well plates were taken out and the flow cytometry antibody mixture (the final concentration of anti-rat B220PE antibody was 1 μg/mL and the final concentration of anti-rat CD86 FITC antibody was 1 μg/mL) diluted with PBS was added to each well of plate, which were incubated for 30 minutes in the dark, and then 50 μL of blood from each well was pipetted to the freshly prepared 500 μL of lysis buffer to lyse red blood cells. The plates were shaken for 20 minutes, centrifuged to remove the supernatant, then washed, fixed, and detected on a flow cytometer.
The B cell activation in the sample was determined by flow dyeing method.
The average value of the proportion of activated B cells in the wells with anti-rat immunoglobulin D but without the test compound was used as the control treating well for anti-rat immunoglobulin D, and the average value of the proportion of activated B cells in the wells without immunoglobulin D stimulation and without the test compound was used as the negative control treating well. According to the B cell activation ratio in each well, the inhibition ratio (%) of each concentration was calculated, and then the IC50 value was obtained by using the 205 model in XL-Fit 5.3 software (ID Business Solutions Limited).
The inhibition ratio is calculated as follows: inhibition ratio (%)=100%−{(treating well for the test compound−negative control treating well)/(control treating well for anti-rat immunoglobulin D−negative control treating well)}×100%, wherein,
Treating well for the test compound: represents the B cell activation ratio in rat whole blood treated with anti-rat immunoglobulin D and the test compound.
Control treating well for anti-rat immunoglobulin D: represents the B cell activation ratio in rat whole blood treated with anti-rat immunoglobulin D but without the test compound.
Negative control treating well: represents the B cell activation ratio in rat whole blood without the test compound and without immunoglobulin stimulation.
Through the above-mentioned test, the compound of the present invention has a potency to inhibit B cell activation in rat whole blood.

BTK recombinant protein = BTK recombinant protein (Homo sapiens (Human), UniProt Q06187); experiment: Determination of biochemical BTK (Z'-LYTE kinase assay)
Outline: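 Human BTK recombinant kinase (3.32 nM final) was preincubated with compound for 30 min at 4 °C. Reaction ran 1 h at room temperature with Tyr01 FRET peptide (2 μM) and ATP (32 μM); development protease then added. Coumarin 445 nm/fluorescein 520 nm emission ratio (400 nm excitation) gave inhibition across 8 concentrations, 3000–1.37 nM.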

[5] = tested on: TMD8 subcutaneous xenograft (human diffuse large B-cell lymphoma cells); experiment: In vivo efficacy in TMD8 subcutaneous xenograft model in nude mice
Procedure: Example 7 Evaluation of In Vivo Efficacy of the Compound of the Present Invention in TMD8 Subcutaneous Xenograft Model
Objects: To investigate the anti-tumor activity of compound 19 in TMD8 subcutaneous xenograft model in nude mice.
Methods: Human diffuse large B-cell lymphoma cells TMD8 (acquired under license from Tokyo Medical and Dental University) were cultured in RPMI1640 medium containing 10% fetal bovine serum. 1×10^7 tumor cells suspended in RPMI1640 medium mixed well with Matrigel (purchased from Corning, USA) at 1:1 were implanted subcutaneously on the right flank of each male Balb/c nude mouse (Shanghai Lingchang Biotechnology Co., Ltd.), pretreated with cyclophosphamide (at a dose of 200 mg/kg, intraperitoneal injection 24 h before cell inoculation). […] All drugs were administered by oral gavage, once a day, and the vehicle control group was administered orally with 0.5% hydroxypropyl methylcellulose solution (pH=3).
Tumor volumes (tumor volume=0.5×long diameter×short diameter^2) and body weights of the mice were measured regularly. The tumor volume change and body weight were statistically analyzed, with p<0.05 considered statistically significant, and p<0.01 as extremely statistically significant.
The anti-tumor activity was evaluated by tumor growth inhibition. Tumor growth inhibition (TGI %)=100%×(1−(TVDt (treatment group)−TVD0 (treatment group))/(TVDt (control group)−TVD0 (control group))) Relative body weight (RBW %)=BWDt/BWD0×100%
wherein, TVD0 represents the tumor volume obtained at first measurement, namely, the tumor volume before drug administration, and TVDt represents the tumor volume on the day of measurement; BWD0 represents the body weight of the animal obtained at first measurement, namely, the body weight of the animal before drug administration; BWDt represents the body weight of the animal on the day of measurement.

[6] = 50 mg/kg oral gavage once a day, Day 21

phosphorylated BTK in Ramos cells, sequence (Q06187 whole entry): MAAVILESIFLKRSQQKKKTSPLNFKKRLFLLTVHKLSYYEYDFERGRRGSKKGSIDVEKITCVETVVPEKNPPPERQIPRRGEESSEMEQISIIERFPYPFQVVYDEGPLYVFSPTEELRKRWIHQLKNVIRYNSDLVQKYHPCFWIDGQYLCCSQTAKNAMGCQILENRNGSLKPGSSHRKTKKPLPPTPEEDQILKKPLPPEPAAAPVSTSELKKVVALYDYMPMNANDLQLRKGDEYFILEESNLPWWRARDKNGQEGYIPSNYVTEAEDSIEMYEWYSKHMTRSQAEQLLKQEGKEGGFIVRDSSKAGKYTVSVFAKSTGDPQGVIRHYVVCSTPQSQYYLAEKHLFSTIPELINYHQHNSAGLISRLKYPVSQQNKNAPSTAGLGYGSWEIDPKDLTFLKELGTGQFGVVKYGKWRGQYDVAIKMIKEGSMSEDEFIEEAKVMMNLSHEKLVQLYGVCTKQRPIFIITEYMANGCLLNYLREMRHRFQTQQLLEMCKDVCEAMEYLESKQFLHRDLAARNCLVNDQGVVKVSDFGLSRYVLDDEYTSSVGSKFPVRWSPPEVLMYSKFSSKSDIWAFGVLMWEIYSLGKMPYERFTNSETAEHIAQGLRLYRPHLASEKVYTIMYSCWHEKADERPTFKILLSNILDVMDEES
BTK recombinant protein, sequence (Q06187 whole entry): as above

Cn1cc(-c2ccnc(-n3ccn4c5c(cc4c3=O)CC(C)(C)C5)c2CO)cc(Nc2ccc(N3CCN(C4COC4)CC3=O)cn2)c1=O [Compound 34]
pIC50 [1]: 8.00 | stability in rat & mouse liver microsomes compared with the reference GDC-0853 ([2]; rat & mouse liver microsomes, 30 minutes): better than that of the reference GDC-0853 | RLM (percentage of the remaining compound after 30 minutes of incubation) ([2]; rat liver microsomes 0.5 mg/mL, compound 1 μM, 37° C.): ~100% | MLM (percentage of the remaining compound after 30 minutes of incubation) [3]: 89.5%

CCn1cc(Nc2cc(-c3ccnc(-n4ccn5c6c(cc5c4=O)CC(C)(C)C6)c3CO)cn(C)c2=O)nn1 [Compound 24]
pIC50 [1]: 7.85 | pIC50 [4]: 7.07

CC1(C)Cc2cc3c(=O)n(-c4nccc(-c5cc(Nc6cc7n(n6)CCN(C6COC6)C7)c6ncnn6c5)c4CO)ccn3c2C1 [Compound 13]
pIC50 [1]: 9.00 | pIC50 [4]: 8.30

CC1(C)Cc2cc3c(=O)n(-c4nccc(-c5cc(Nc6cc7n(n6)CCNC7)c6ncnn6c5)c4CO)ccn3c2C1 [Compound 17]
pIC50 [1]: 8.40 | pIC50 [4]: 7.59

C[C@H]1CN(C2COC2)CCN1c1ccc(Nc2nc(-c3ccnc(-n4ccn5c6c(cc5c4=O)CC(C)(C)C6)c3CO)cn(C)c2=O)nc1 [Compound 20]
pIC50 [1]: 7.77 | pIC50 [4]: 6.34

C[C@@H]1CN(c2ccc(Nc3cc(-c4ccnc(-n5ccn6c7c(cc6c5=O)CC(C)(C)C7)c4CO)nn(C)c3=O)nc2)[C@@H](C)CN1C1COC1 [Compound 5]
pIC50 (BTK recombinant protein): 8.05 | pIC50 [4]: 8.70

CN1CCn2nc(Nc3cc(-c4ccnc(-n5ccn6c7c(cc6c5=O)CC(C)(C)C7)c4CO)cn4ncnc34)cc2C1 [Compound 16]
pIC50 [1]: 8.70 | pIC50 [4]: 8.10

C=CC(=O)N1CCC[C@@H](n2nc(-c3ccc(Oc4ccccc4)cc3)c3c(N)ncnc32)C1 [Ibrutinib, reference compound]
Number of animals with CR (Day 21) ([5]; 50 mg/kg oral gavage once a day, 8 animals per group): 1 | Tumor volume (mm^3) ± SD Day 0 ([5]; 50 mg/kg oral gavage once a day, Day 0, before drug administration): 397 ± 42 mm^3 | TGI (%) [5, 6]: 42.4% | Tumor volume (mm^3) ± SD Day 21 [5, 6]: 2027 ± 991 mm^3 | RBW (%) (Day 21) ([5]; 50 mg/kg oral gavage once a day, relative body weight): 111.4% | Tumor growth inhibition (TGI %) ([5]; 50 mg/kg, oral gavage once a day, 21 days after treatment, vs vehicle control): 42.4%

CCn1cc(Nc2cc(-c3ccnc(-n4ccn5c6c(cc5c4=O)CC(C)(C)C6)c3CO)nn(C)c2=O)nn1 [Compound 25]
pIC50 [1]: 7.62 | pIC50 [4]: 7.54

— patent publication US11478474B2, “2-(3′-(hydroxymethyl)-1-methyl-5-((5-(2-methyl-4-(oxetan-3-yl)piperazin-1-yl)pyridin-2-yl)amino)-6-oxo-1,6-dihydro-[3,4′-bipyridin]-2′-yl)-7,7-dimethyl-7,8-dihydro-2H-cyclopenta[4,5]pyrrolo[1,2-a]pyrazin-1(6H)-one as a BTK inhibitor” (HUTCHISON MEDIPHARMA LIMITED, priority 2020, dated 2022)
